Experimental data: patent US20240270821A1, “GIP/GLP1/GCG TRI-RECEPTOR AGONISTS AND USES THEREOF” (priority 2023, published 2024)
Starred links: 1 amine or outer side, 2 acyl side, 3 side chain; linkers in the order of their positions; H or OH if unused. Non-standard residues stand in square brackets, D forms with d. Groups on a side chain read outwards from the residue. *: point of attachment. C20 diacid = O=C(O)CCCCCCCCCCCCCCCCCCC(=O)*; C18 diacid = O=C(O)CCCCCCCCCCCCCCCCC(=O)*; αMePhe(2-F) = C[C@](N)(Cc1ccccc1F)C(=O)O; γGlu = O=C(O)[C@H](CCC(=O)[*:2])N[*:1]; NMeY = CN[C@@H](Cc1ccc(O)cc1)C(=O)O; αMeF = C[C@](N)(Cc1ccccc1)C(=O)O; αMeL = CC(C)C[C@](C)(N)C(=O)O; Orn = NCCC[C@H](N)C(=O)O; AEEA = NCCOCCOCC(=O)O; Aib = CC(C)(N)C(=O)O

Tests used:
Format in all cases: cell-based
[1] = target: T1, hGLP-1R (Homo sapiens, UniProt P43220); assay: Functional cAMP activation in the presence of 0.1% casein (no HSA); conditions: in the presence of 0.1% casein (no HSA); geometric mean; read-out: Relative cAMP EC50, hGLP-1R;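 further: intracellular cAMP rise after 30 min at 37 °C read by HTRF, normalized between buffer only (0%) and maximal control ligand (100%), four-parameter variable-slope fit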
Target sequence in this assay (P43220 24-463): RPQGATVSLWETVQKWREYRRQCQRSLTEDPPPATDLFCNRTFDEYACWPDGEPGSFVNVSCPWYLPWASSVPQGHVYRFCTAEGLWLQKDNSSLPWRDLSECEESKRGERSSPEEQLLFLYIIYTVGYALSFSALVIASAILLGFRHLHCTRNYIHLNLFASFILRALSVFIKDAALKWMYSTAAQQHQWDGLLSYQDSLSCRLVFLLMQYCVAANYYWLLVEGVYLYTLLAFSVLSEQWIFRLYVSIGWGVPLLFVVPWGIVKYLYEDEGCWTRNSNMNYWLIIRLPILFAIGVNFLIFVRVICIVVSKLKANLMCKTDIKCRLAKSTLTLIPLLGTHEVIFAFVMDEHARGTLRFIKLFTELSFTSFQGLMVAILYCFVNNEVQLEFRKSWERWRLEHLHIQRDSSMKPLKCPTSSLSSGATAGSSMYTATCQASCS

[2] = target: T1, hGLP-1R; assay: Functional cAMP activity in the presence of 1% HSA; conditions: read-out: cAMP Rel EC50, hGLP-1R
Target sequence in this assay (P43220 24-463): as above

[3] = target: human GcgR (Homo sapiens, UniProt P47871); assay: Functional cAMP activity in the presence of 1% HSA; conditions: read-out: cAMP Rel EC50, hGcgR
human GcgR, sequence (P47871 26-477): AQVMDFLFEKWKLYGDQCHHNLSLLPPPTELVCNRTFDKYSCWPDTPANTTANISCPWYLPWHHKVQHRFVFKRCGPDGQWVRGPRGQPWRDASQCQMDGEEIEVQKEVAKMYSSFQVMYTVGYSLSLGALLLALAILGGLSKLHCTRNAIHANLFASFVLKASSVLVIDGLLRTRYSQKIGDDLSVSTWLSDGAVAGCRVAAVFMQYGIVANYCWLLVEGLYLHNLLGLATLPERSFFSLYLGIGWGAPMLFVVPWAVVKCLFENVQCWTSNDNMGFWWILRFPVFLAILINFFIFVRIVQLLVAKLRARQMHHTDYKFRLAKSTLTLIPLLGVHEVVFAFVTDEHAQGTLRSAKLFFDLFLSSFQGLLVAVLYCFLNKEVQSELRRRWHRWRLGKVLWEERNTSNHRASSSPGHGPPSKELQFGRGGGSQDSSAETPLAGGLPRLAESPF

[4] = target: T2, hGIPR (Homo sapiens, UniProt P48546); assay: Functional cAMP activity in the presence of 1% HSA; conditions: read-out: cAMP Rel EC50, hGIPR
T2 sequence (P48546 22-466): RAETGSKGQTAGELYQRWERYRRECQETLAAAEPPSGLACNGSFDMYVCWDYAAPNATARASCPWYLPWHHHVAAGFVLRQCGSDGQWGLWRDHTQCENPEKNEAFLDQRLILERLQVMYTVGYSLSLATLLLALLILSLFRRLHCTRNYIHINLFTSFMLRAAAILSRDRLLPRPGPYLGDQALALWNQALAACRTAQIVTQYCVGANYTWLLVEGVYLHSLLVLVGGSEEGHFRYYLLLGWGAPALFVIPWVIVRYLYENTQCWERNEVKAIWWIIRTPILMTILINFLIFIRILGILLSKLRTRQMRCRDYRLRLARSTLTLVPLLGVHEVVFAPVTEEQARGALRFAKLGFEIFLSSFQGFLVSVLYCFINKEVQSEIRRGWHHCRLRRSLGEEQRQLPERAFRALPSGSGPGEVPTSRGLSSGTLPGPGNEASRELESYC

[5] = target: hGcgR (Homo sapiens, UniProt P47871); assay: Functional cAMP activation in the presence of 0.1% casein (no HSA); conditions: in the presence of 0.1% casein (no HSA); geometric mean; read-out: Relative cAMP EC50, hGcgR;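 further: intracellular cAMP rise after 30 min at 37 °C, read by HTRF against a cAMP standard curve, scaled from buffer only (0%) to maximal control ligand response (100%)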
hGcgR, sequence (P47871 26-477): as the sequence (P47871 26-477) above

[6] = target: T1, hGLP-1R; assay: GLP-1R CHO cell β-arrestin recruitment assay; parameters: host or cells: CHO-K1 (PathHunter, assay-ready frozen cells); conditions: for EC50: CHO-K1 PathHunter, β-arrestin-2, 0.1% casein, read-out: hGLP1R β-arrestin Rel EC50; for % Stimulation Max: normalized to GLP-1(7-36) as maximum control;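 on all read-outs here: luminescence read after 90 min peptide exposure at 37 °C and a further 60 min with detection reagent at room temperature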
Target sequence in this assay (P43220 24-463): as the sequence (P43220 24-463) above
Target sequence in this assay (P32121 whole entry partner): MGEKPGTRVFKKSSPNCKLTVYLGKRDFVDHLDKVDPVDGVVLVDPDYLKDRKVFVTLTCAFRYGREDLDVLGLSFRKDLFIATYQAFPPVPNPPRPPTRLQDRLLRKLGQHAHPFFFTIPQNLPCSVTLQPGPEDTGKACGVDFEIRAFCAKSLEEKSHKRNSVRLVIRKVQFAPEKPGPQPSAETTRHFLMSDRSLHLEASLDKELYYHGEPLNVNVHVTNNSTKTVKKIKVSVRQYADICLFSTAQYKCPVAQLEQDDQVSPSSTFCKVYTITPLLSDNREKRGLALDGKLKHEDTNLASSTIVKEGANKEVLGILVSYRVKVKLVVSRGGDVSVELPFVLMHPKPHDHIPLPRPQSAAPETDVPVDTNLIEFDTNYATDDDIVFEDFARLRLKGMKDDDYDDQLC

[7] = target: T2, hGIPR; assay: Functional cAMP activation in the presence of 0.1% casein (no HSA); conditions: in the presence of 0.1% casein (no HSA); geometric mean; read-out: Relative cAMP EC50, hGIPR;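 further: intracellular cAMP rise after 30 min at 37 °C read by HTRF against a standard curve, scaled between buffer alone (0%) and top control ligand concentration (100%), four-parameter fit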

Row | EC50 [1] [nM] | EC50 [2] [nM] | EC50 [3] [nM] | EC50 [4] [nM] | EC50 [5] [nM] | EC50 [6] [nM] | % Stimulation Max [6] [%] | EC50 [7] [nM] | Substance
1 | 1.48 | 415 | 1500 | 92.4 | 6.73 | 23.3 | 58.3 | 1 | H-Y[Aib]QGTFTSDYSI[αMeL]LDKQAAK([AEEA-AEEA-γGlu-C20 diacid])AFVEWLLAGGPSSGEPPPSEG-NH2 [Example 305]
2 | 0.277 | 70.9 | 1570 | 41.3 | 1.04 | 3.29 | 86.4 | 0.138 | H-H[Aib]QGT[αMePhe(2-F)]TSDYSILLDKK([AEEA-γGlu-C20 diacid])AA[Aib]AFIEYLIEAGPSSGEPPPSEG-NH2 [Example 298]
3 | 0.808 | 251 | 3910 | 424 | 9.28 | 6.72 | 47.2 | 0.32 | H-Y[Aib]QGT[αMePhe(2-F)]TSDYSKLLDKQAQK([AEEA-γGlu-C20 diacid])QFIEYLIEGGPSSGEPPPSEG-NH2 [Example 309]
4 | 0.994 | 295 | 1740 | 9.63 | 4.01 | 11.9 | 54.6 | 0.0587 | H-Y[Aib]QGT[αMePhe(2-F)]TSDYSILLDKIAQK([AEEA-γGlu-C20 diacid])AFIEYLLEGGPSSGEPPPSEG-NH2 [Example 293]
5 | 1.05 | 98 | 976 | 12.9 | 6.54 | 15.7 | 40.3 | 0.0975 | H-[NMeY][Aib]QGT[αMeF]TSDYSILLDKIAAK([AEEA-AEEA-γGlu-C20 diacid])AFVQWLIAGGPSSGEPPPSEG-NH2 [Example 300]
6 | 3.15 | 477 | 4950 | 237 | 14.2 | 16.9 | 41.4 | – | H-Y[Aib]QGTFTSDYSI[αMeL]LDKIAAK([AEEA-AEEA-γGlu-C20 diacid])[Orn]FVQYLIAGGPSSGEPPPSEG-NH2 [Example 308]
7 | 2.16 | 554 | 518 | 54.1 | 1.07 | 27.7 | 35.3 | 0.318 | H-Y[Aib]QGTFTSDYSI[αMeL]LDKK([AEEA-AEEA-γGlu-C20 diacid])AA[Aib]AFIEYLLEGGPSSGEPPPSEG-NH2 [Example 294]
8 | 0.836 | 209 | 1880 | 65.3 | 1.68 | 9.86 | 70.8 | 0.446 | H-Y[Aib]QGT[αMeF]TSDYSILLDKIAAK([AEEA-AEEA-γGlu-C18 diacid])NFIEYLVEGGPSSGEPPPSEG-NH2 [Example 307]
9 | 0.551 | 172 | 1720 | 48 | 2.31 | 9.21 | 47.8 | 0.127 | H-Y[Aib]QGT[αMePhe(2-F)]TSDYSKLLDKIAQK([AEEA-γGlu-C20 diacid])AFIEYLIEGGPSSGEPPPSEG-NH2 [Example 304]
